The values that follow are results of earlier work, collected in patent US11173121B2, “Pellets having a multi-layer structure for delayed release of the active substance in the distal colon” (Dr. Falk Pharma GmbH, priority 2018, dated 2021).

As to `CCCC1O[C@@H]2C[C@H]3[C@@H]4CCC5=CC(=O)C=C[C@]5(C)[C@H]4[C@@H](O)C[C@]3(C)[C@]2(C(=O)CO)O1` (stereo partly shown) [budesonide], the pKa value is given as 12.85±0.10.
